{"source": "patent US20140142613A1", "about": "“INSTRUMENT FOR CAPTURING FREE THROMBI” (Toray Industries, Inc., priority 2011, published 2014)", "system": "citrated blood", "experiment": "Measurement of whole blood clotting time (Sonoclot, ACT ONSET value)", "set-up": "species or system human", "description": "In a cuvette (NON-ACTIVATED CLOTTING TEST KIT), 18 μL of physiological saline was placed, and 14.8 μL of Calcicol was added thereto, followed by further adding 342 μL of the citrated blood to the resulting mixture. The mixture was then subjected to measurement using a Sonoclot coagulation & Platelet Function Analyzer (IMI Corporation), and the obtained ACT ONSET value was regarded as the whole blood clotting time."}
{"smiles": "CC1CNc2c(cccc2S(=O)(=O)N[C@@H](CCCNC(=N)N)C(=O)N2CC[C@@H](C)C[C@@H]2C(=O)O)C1", "note": "(mixture of isomers) [argatroban, (2R,4R)-4-methyl-1-((2S)-2-{[(3RS)-3-methyl-1,2,3,4-tetrahydroquinolin-8-yl]sulfonyl}amino-5-guanidinopentanoyl)piperidine-2-carboxylic acid]", "values": [{"measurement": "whole blood clotting time", "setting": "2 μM argatroban solution instead of physiological saline", "result": 531, "unit": "s"}, {"measurement": "whole blood clotting time", "setting": "10 μM argatroban solution instead of physiological saline", "result": 746, "unit": "s"}, {"measurement": "whole blood clotting time", "setting": "20 μM argatroban solution instead of physiological saline", "result": 849, "unit": "s"}]}
